From US6472348B1, “Pyridone derivatives and herbicides” (Kumiai Chemical Industry Co., Ltd., priority 1996, dated 2002)

Experiments:
rice flatsedge (Ci) [1] = experiment: Test Example 2: herbicidal effects by upland field soil treatment; type: in vivo; conditions: 100 g of the active ingredient per 10 ares, evaluated on the 21st day after application;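 note: grade of growth control; 5 = at least 90%; 4 = 70 to 90%; 3 = 50 to 70%; 2 = 30 to 50%; 1 = 10 to 30%; 0 = under 10%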
Description: (§1) (Test on Herbicidal Effects by Upland Field Soil Treatment)

[2] = system: common lambsquarters (Ch); experiment: as above; type: in vivo; conditions: 100 g of the active ingredient per 10 ares, evaluated on the 21st day after application
Description: as §1

pale smartweed (Po) [3] = experiment: as above; type: in vivo; conditions: 100 g of the active ingredient per 10 ares, evaluated on the 21st day after application
Description: as §1

barnyardgrass (Ec) [4] = experiment: as above; type: in vivo; conditions: 100 g of the active ingredient per 10 ares, evaluated on the 21st day after application
Description: as §1

slender amaranth (Am) [5] = experiment: as above; type: in vivo; conditions: 100 g of the active ingredient per 10 ares, evaluated on the 21st day after application
Description: as §1

Digitaria ciliaris (Di) = experiment: as above; type: in vivo; conditions: 100 g of the active ingredient per 10 ares, evaluated on the 21st day after application;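 note: grade of growth control; 5 = at least 90%; 4 = 70 to 90%; 3 = 50 to 70%; 2 = 30 to 50%; 1 = 10 to 30%; 0 = under 10%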
Description: as §1

China jute (Ab) [6] = experiment: Test Example 5: crop plant selectivity by upland field soil treatment (wheat), herbicidal effects; type: in vivo; parameters: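 grade of growth control; 5 = at least 90%; 4 = 70 to 90%; 3 = 50 to 70%; 2 = 30 to 50%; 1 = 10 to 30%; 0 = under 10%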; conditions: 21st day after application
How it was run: (§2)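 Scores are visual ratings of herbicidal effect or wheat phytotoxicity, recorded on the 21st day after soil treatment of pots sown with wheat and weeds and kept in a greenhouse.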

green foxtail (Se) [7] = experiment: as above; type: in vivo; parameters: scale not given here; conditions: 21st day after application
How it was run: as §2

[8] = system: common lambsquarters (Ch); experiment: as above; type: in vivo; parameters: scale not given here; conditions: 21st day after application
How it was run: as §2

pale smartweed (Po) [9] = experiment: as above; type: in vivo; parameters: scale not given here; conditions: 21st day after application
How it was run: as §2

slender amaranth (Am) [10] = experiment: as above; type: in vivo; parameters: scale not given here; conditions: 21st day after application
How it was run: as §2

monochoria (Mo) = experiment: Test Example 1: herbicidal effects by paddy field soil treatment; type: in vivo; conditions: 100 g of the active ingredient per 10 ares, 21st day after the application, index 0-5 of Table 47;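 note: grade of growth control; 5 = at least 90%; 4 = 70 to 90%; 3 = 50 to 70%; 2 = 30 to 50%; 1 = 10 to 30%; 0 = under 10%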
How it was run: (§3)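 Scoring of herbicidal effect came 21 days after application of 100 g active ingredient per 10 ares to flooded (3 cm) paddy-soil pots sown with barnyardgrass, monochoria and bulrush, kept in a greenhouse.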

bulrush (Sc) = experiment: as above; type: in vivo; conditions: 100 g of the active ingredient per 10 ares, 21st day after the application, index 0-5 of Table 47;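 note: grade of growth control; 5 = at least 90%; 4 = 70 to 90%; 3 = 50 to 70%; 2 = 30 to 50%; 1 = 10 to 30%; 0 = under 10%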
How it was run: as §3

barnyardgrass (Ec) [11] = experiment: as above; type: in vivo; conditions: 100 g of the active ingredient per 10 ares, 21st day after the application, index 0-5 of Table 47
How it was run: as §3

Diaitaria ciliaris (Di) [12] = experiment: Test Example 5: crop plant selectivity by upland field soil treatment (wheat), herbicidal effects; type: in vivo; conditions: 21st day after application
Experimental: (§4) (Test on Crop Plant Selectivity by Upland Field Soil Treatment)
In a plastic pot (surface area: 600 cm^2) filled with sand, wheat (Tr), Diaitaria ciliaris (Di), green foxtail (Se), pale smartweed (Po), slender amaranth (Am), common lambsquarters (Ch) and China jute (Ab) were sown and covered with soil. […] The plants were then cultured in a green house, and the evaluation of the herbicidal effects and phytotoxicity was conducted on the 21st day after the application in accordance with the standards as identified in Table 47. Symbol—represents “not tested”.

wheat (Tr) = experiment: Test Example 5: crop plant selectivity by upland field soil treatment (wheat), phytotoxicity; type: in vivo; parameters: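 grade of crop injury; 5 = at least 90%; 4 = 70 to 90%; 3 = 50 to 70%; 2 = 30 to 50%; 1 = 10 to 30%; 0 = under 10%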; conditions: 21st day after application
How it was run: as §2

Diaitaria ciliaris (Di) [13] = experiment: Test Example 3: herbicidal effects by upland field foliage treatment; type: in vivo; parameters: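 grade of growth control; 5 = at least 90%; 4 = 70 to 90%; 3 = 50 to 70%; 2 = 30 to 50%; 1 = 10 to 30%; 0 = under 10%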; conditions: 100 g active ingredient per 10 ares, evaluated 14th day after treatment
How it was run: (§5)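 Test plants had been raised from seed for 2 weeks in a greenhouse, in soil-covered sand pots of 120 cm^2, and were returned there after spraying.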

rice flatsedge (Ci) [14] = experiment: as above; type: in vivo; parameters: scale not given here; conditions: 100 g active ingredient per 10 ares, evaluated 14th day after treatment
How it was run: as §5

[15] = system: common lambsquarters (Ch); experiment: as above; type: in vivo; parameters: scale not given here; conditions: 100 g active ingredient per 10 ares, evaluated 14th day after treatment
How it was run: as §5

pale smartweed (Po) [16] = experiment: as above; type: in vivo; parameters: scale not given here; conditions: 100 g active ingredient per 10 ares, evaluated 14th day after treatment
How it was run: as §5

barnyardgrass (Ec) [17] = experiment: as above; type: in vivo; parameters: scale not given here; conditions: 100 g active ingredient per 10 ares, evaluated 14th day after treatment
How it was run: as §5

slender amaranth (Am) [18] = experiment: as above; type: in vivo; parameters: scale not given here; conditions: 100 g active ingredient per 10 ares, evaluated 14th day after treatment
How it was run: as §5

cotton (Go) = experiment: Test Example 4: crop plant selectivity by upland field soil treatment (cotton), phytotoxicity; type: in vivo; parameters: scale not given here; conditions: evaluated 21st day after application
How it was run: (§6)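 Cotton is sown alongside weeds in pots of sand, covered with soil, and the soil surface is treated. After greenhouse growth, herbicidal activity and phytotoxicity are graded on the 21st day.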

Diaitaria ciliaris (Di) [19] = experiment: Test Example 4: crop plant selectivity by upland field soil treatment (cotton), herbicidal effects; type: in vivo; conditions: evaluated 21st day after application
Experimental: as §4
In a plastic pot (surface area: 600 cm^2) filled with sand, cotton (Go), Diaitaria ciliaris (Di), green foxtail (Se), pale smartweed (Po), slender amaranth (Am), common lambsquarters (Ch) and China jute (Ab) were sown and covered with soil. […] The plants were then cultured in a green house, and the evaluation of the herbicidal effects and phytotoxicity was conducted on the 21st day after the application in accordance with the standards as identified in Table 47. Symbol—represents “not tested”.

China jute (Ab) [20] = experiment: as above; type: in vivo; parameters: scale not given here; conditions: evaluated 21st day after application
How it was run: as §6

green foxtail (Se) [21] = experiment: as above; type: in vivo; parameters: scale not given here; conditions: evaluated 21st day after application
How it was run: as §6

[22] = system: common lambsquarters (Ch); experiment: as above; type: in vivo; parameters: scale not given here; conditions: evaluated 21st day after application
How it was run: as §6

pale smartweed (Po) [23] = experiment: as above; type: in vivo; parameters: scale not given here; conditions: evaluated 21st day after application
How it was run: as §6

slender amaranth (Am) [24] = experiment: as above; type: in vivo; parameters: scale not given here; conditions: evaluated 21st day after application
How it was run: as §6

SMILES: Cn1c(C(F)(F)F)ccc(-c2cc3c(cc2F)OCC(=O)N3)c1=O [Compound No. 2-4, 3-(7-fluoro-2,3-dihydro-1,4-benzoxazin-3-on-6-yl)-1-methyl-6-trifluoromethyl-2(1H)-pyridone]
- Herbicidal effects Ci (rice flatsedge (Ci) [1]): 5
- Herbicidal effects Ch [2]: 5
- Herbicidal effects Po (pale smartweed (Po) [3]): 5
- Herbicidal effects Ec (barnyardgrass (Ec) [4]): 5
- Herbicidal effects Am (slender amaranth (Am) [5]): 5
- Herbicidal effects Di (Digitaria ciliaris (Di)): 5
- Herbicidal effects Ab (China jute (Ab) [6]; dose 1.6 g ai/10a): 3
- Herbicidal effects Se (green foxtail (Se) [7]; dose 1.6 g ai/10a): 5
- Herbicidal effects Ch ([8]; dose 1.6 g ai/10a): 4
- Herbicidal effects Po (pale smartweed (Po) [9]; dose 1.6 g ai/10a): 5
- Herbicidal effects Am (slender amaranth (Am) [10]; dose 1.6 g ai/10a): 5
- Herbicidal effects Mo (monochoria (Mo)): 5
- Herbicidal effects Sc (bulrush (Sc)): 5
- Herbicidal effects Ec (barnyardgrass (Ec) [11]): 5
- Herbicidal effects Di (Diaitaria ciliaris (Di) [12]; dose 1.6 g ai/10a): 5
- Phytotoxicity Tr (wheat (Tr); dose 1.6 g ai/10a): 0
- Herbicidal effects Di (Diaitaria ciliaris (Di) [13]): 5
- Herbicidal effects Ci (rice flatsedge (Ci) [14]): 5
- Herbicidal effects Ch [15]: 5
- Herbicidal effects Po (pale smartweed (Po) [16]): 5
- Herbicidal effects Ec (barnyardgrass (Ec) [17]): 5
- Herbicidal effects Am (slender amaranth (Am) [18]): 5

SMILES: Cc1cc2c(-c3cn(C)c(C(F)(F)F)cc3=O)c(F)cc(Cl)c2o1 [Compound No. 9-1, 5-(7-chloro-5-fluoro-2-methylbenzofuran-4-yl)-1-methyl-2-trifluoromethyl-4(1H)-pyridone]
- Herbicidal effects Ci (rice flatsedge (Ci) [1]): 5
- Herbicidal effects Ch [2]: 5
- Herbicidal effects Po (pale smartweed (Po) [3]): 5
- Herbicidal effects Ec (barnyardgrass (Ec) [4]): 5
- Herbicidal effects Am (slender amaranth (Am) [5]): 5
- Herbicidal effects Di (Digitaria ciliaris (Di)): 5
- Phytotoxicity Go (cotton (Go); dose 1.6 g ai/10 a): 0
- Phytotoxicity Go (cotton (Go); dose 6.3 g ai/10 a): 0
- Herbicidal effects Ab (China jute (Ab) [6]; dose 1.6 g ai/10a): 5
- Herbicidal effects Ab (China jute (Ab) [6]; dose 6.3 g ai/10a): 5
- Herbicidal effects Se (green foxtail (Se) [7]; dose 1.6 g ai/10a): 5
- Herbicidal effects Se (green foxtail (Se) [7]; dose 6.3 g ai/10a): 5
- Herbicidal effects Ch ([8]; dose 1.6 g ai/10a): 5
- Herbicidal effects Ch ([8]; dose 6.3 g ai/10a): 5
- Herbicidal effects Po (pale smartweed (Po) [9]; dose 1.6 g ai/10a): 5
- Herbicidal effects Po (pale smartweed (Po) [9]; dose 6.3 g ai/10a): 4
- Herbicidal effects Am (slender amaranth (Am) [10]; dose 1.6 g ai/10a): 5
- Herbicidal effects Am (slender amaranth (Am) [10]; dose 6.3 g ai/10a): 5
- Herbicidal effects Mo (monochoria (Mo)): 5
- Herbicidal effects Sc (bulrush (Sc)): 5
- Herbicidal effects Ec (barnyardgrass (Ec) [11]): 5
- Herbicidal effects Di (Diaitaria ciliaris (Di) [12]; dose 1.6 g ai/10a): 5
- Herbicidal effects Di (Diaitaria ciliaris (Di) [12]; dose 6.3 g ai/10a): 5
- Herbicidal effects Di (Diaitaria ciliaris (Di) [19]; dose 1.6 g ai/10 a): 5
- Herbicidal effects Di (Diaitaria ciliaris (Di) [19]; dose 6.3 g ai/10 a): 5
- Herbicidal effects Ab (China jute (Ab) [20]; dose 1.6 g ai/10 a): 5
- Herbicidal effects Ab (China jute (Ab) [20]; dose 6.3 g ai/10 a): 5
- Herbicidal effects Se (green foxtail (Se) [21]; dose 1.6 g ai/10 a): 5
- Herbicidal effects Se (green foxtail (Se) [21]; dose 6.3 g ai/10 a): 5
- Herbicidal effects Ch ([22]; dose 1.6 g ai/10 a): 5
- Herbicidal effects Ch ([22]; dose 6.3 g ai/10 a): 5
- Herbicidal effects Po (pale smartweed (Po) [23]; dose 1.6 g ai/10 a): 4
- Herbicidal effects Po (pale smartweed (Po) [23]; dose 6.3 g ai/10 a): 5
- Herbicidal effects Am (slender amaranth (Am) [24]; dose 1.6 g ai/10 a): 5
- Herbicidal effects Am (slender amaranth (Am) [24]; dose 6.3 g ai/10 a): 5
- Phytotoxicity Tr (wheat (Tr); dose 1.6 g ai/10a): 0
- Phytotoxicity Tr (wheat (Tr); dose 6.3 g ai/10a): 1
- melting point: 208 to 211 °C
- Herbicidal effects Di (Diaitaria ciliaris (Di) [13]): 5
- Herbicidal effects Ci (rice flatsedge (Ci) [14]): 5
- Herbicidal effects Ch [15]: 5
- Herbicidal effects Po (pale smartweed (Po) [16]): 5
- Herbicidal effects Ec (barnyardgrass (Ec) [17]): 5
- Herbicidal effects Am (slender amaranth (Am) [18]): 5
